Test results taken from ChEMBL document CHEMBL1629644, “Theileria apicoplast as a target for chemotherapy” (Antimicrob Agents Chemother, 2009).

Assays:
[1] = Induction of apoptosis in bovine BL3 cells assessed as late apoptotic cells after 24 hrs by annexin V/propidium iodide staining-based FACS analysis; type: functional, Bos taurus; parameters: concentration or dose not given beside the values
[2] = Induction of apoptosis in bovine BL3 cells assessed as early apoptotic cells after 24 hrs by annexin V/propidium iodide staining-based FACS analysis; type: functional, Bos taurus; parameters: concentration or dose not given beside the values
[3] = Induction of apoptosis in bovine BL3 cells assessed as viable cells after 24 hrs by annexin V/propidium iodide staining-based FACS analysis; type: functional, Bos taurus; parameters: concentration or dose not given beside the values
[4] = Antiproliferative activity against Theileria parva-induced proliferation of bovine B lymphocyte assessed as inhibition of [3H]thymidine uptake after 48 hrs; type: functional; conditions: Bos taurus, B-cell
[5] = Induction of apoptosis in bovine BL3 cells assessed as necrotic after 24 hrs by annexin V/propidium iodide staining-based FACS analysis; type: functional, Bos taurus; parameters: concentration or dose not given beside the values
[6] = Antiproliferative activity against Theileria parva-induced proliferation of bovine BL3 cells assessed as inhibition of [3H]thymidine uptake after 32 hrs; type: functional, Bos taurus

## O=C(O)c1cn(C2CC2)c2cc(N3CCNCC3)c(F)cc2c1=O [CIPROFLOXACIN]
[1]
  Activity: 0.25%
[2]
  Activity: 1.03%
[3]
  Activity: 98.63%
[4]
  IC50: 123 µM
[5]
  Activity: 0.03%

## CCC[C@@H]1C[C@@H](C(=O)N[C@@H]([C@H]2O[C@H](SC)[C@H](O)[C@@H](O)[C@H]2O)[C@H](C)Cl)N(C)C1 [CLINDAMYCIN]
[1]
  Activity: 0%
[6]
  inhibition (INH): 28%
[2]
  Activity: 7.36%
[3]
  Activity: 92.64%
[4]
  IC50: > 400 µM
[5]
  Activity: 0%

## CC(Oc1ccc(Oc2nc3ccc(Cl)cc3o2)cc1)C(=O)O (stereo not drawn) [FENOXAPROP]
[1]
  Activity: 0.06%
[6]
  inhibition (INH): >75%
[2]
  Activity: 15.98%
[3]
  Activity: 83.78%
[4]
  IC50: 262 µM
[5]
  Activity: 0.18%

## CO[C@H]1/C=C/O[C@@]2(C)Oc3c(C)c(O)c4c(O)c(c(/C=N/N5CCN(C)CC5)c(O)c4c3C2=O)NC(=O)/C(C)=C\C=C\[C@H](C)[C@H](O)[C@@H](C)[C@@H](O)[C@@H](C)[C@H](OC(C)=O)[C@@H]1C [RIFAMPIN]
[1]
  Activity: 0%
[6]
  inhibition (INH): >75%
[2]
  Activity: 2.43%
[3]
  Activity: 97.57%
[4]
  IC50: 96 µM
[5]
  Activity: 0%

## CN[C@@H]1C[C@H]2O[C@@](C)([C@@H]1OC)n1c3ccccc3c3c4c(c5c6ccccc6n2c5c31)C(=O)NC4 [STAUROSPORINE]
[1]
  Activity: 14.54%
[2]
  Activity: 23.83%
[3]
  Activity: 61.57%
[5]
  Activity: 0.08%

## Oc1cc(Cl)ccc1Oc1ccc(Cl)cc1Cl [TRICLOSAN]
[1]
  Activity: 9.98%
[6]
  inhibition (INH): >75%
[2]
  Activity: 44.02%
[3]
  Activity: 45.87%
[4]
  IC50: 20 µM
[5]
  Activity: 0.13%
